Data: PMC10041525, “New Dual Inhibitors of Bacterial Topoisomerases with Broad-Spectrum Antibacterial Activity and In Vivo Efficacy against Vancomycin-Intermediate Staphylococcus aureus” (Journal of Medicinal Chemistry, 2023)
Values after ≈ are worked out from the molar mass of the structure shown. Values joined by “and” are separate entries in the source; they are usually repeats but may differ in a detail not shown here. Equal entries are not always repeated. Where two headings read alike, the source gives them in different places.

Tests used:
[1] = test system: Neisseria gonorrhoeae (n = 12); assay: MIC broth microdilution at IHMA Europe; type: cell-based
[2] = test system: N. gonorrhoeae ATCC 49226; assay: IHMA QC MIC; type: cell-based; settings: QC strain N. gonorrhoeae ATCC 49226, test date 2021-11-18
Source text: (§1) Supplement jm2c01905_si_004.xlsx, sheet "QC" | column: MIC [µg/mL]

E. coli ATCC 25922 [3] = test system: E. coli ATCC 25922; set-up: method as in earlier work; settings: QC range for E. coli ATCC 25922, ref CLSI; cited from earlier work
S. pneumoniae ATCC 49619 [4] = test system: S. pneumoniae ATCC 49619; set-up: method as in earlier work; settings: QC range for S. pneumoniae ATCC 49619, ref CLSI; cited from earlier work
H. influenzae ATCC 49247 [5] = test system: H. influenzae ATCC 49247; set-up: method as in earlier work; settings: QC range for H. influenzae ATCC 49247, ref CLSI; cited from earlier work
[6] = test system: N. gonorrhoeae ATCC 49226; set-up: method as in earlier work; settings: QC range for N. gonorrhoeae ATCC 49226, ref CLSI; cited from earlier work
[7] = test system: Haemophilus influenzae (n = 14); assay: MIC broth microdilution at IHMA Europe; type: cell-based, H. influenzae
E. faecium (n = 13) = assay: MIC broth microdilution at IHMA Europe; type: cell-based
S. pneumoniae (n = 12) = assay: MIC broth microdilution at IHMA Europe; type: cell-based
P. aeruginosa ATCC 27853 = assay: IHMA QC MIC; type: cell-based
E. coli ATCC 25922 [8] = assay: IHMA QC MIC; type: cell-based
E. faecalis ATCC 29212 [9] = assay: IHMA QC MIC; type: cell-based
Source text: as §1

H. influenzae ATCC 49247 [10] = assay: IHMA QC MIC; type: cell-based
Source text: as §1

H. influenzae ATCC 49766 = assay: IHMA QC MIC; type: cell-based
Source text: as §1

S. pneumoniae ATCC 49619 [11] = assay: IHMA QC MIC; type: cell-based
Source text: as §1

E. faecalis ATCC 29212 [12] = test system: E. faecalis ATCC 29212; set-up: method as in earlier work; settings: QC range for E. faecalis ATCC 29212, ref CLSI; cited from earlier work

## COCC1=C(C(=O)O)N2C(=O)[C@@H](NC(=O)/C(=N\OC)c3csc(N)n3)[C@H]2SC1 [Cefpodoxime, cefpodoxime]
[1]; MIC 0.015 µg/mL
  Cumulative % at MIC: 8.3%
  No. of isolates at MIC: 1
[1]; MIC 0.03 µg/mL
  Cumulative % at MIC: 16.7%
  No. of isolates at MIC: 1
[1]; MIC 0.06 µg/mL
  Cumulative % at MIC: 41.7%
  No. of isolates at MIC: 3
[1]; MIC 0.5 µg/mL
  Cumulative % at MIC: 66.7%
  No. of isolates at MIC: 1
[1]; MIC 1 µg/mL
  Cumulative % at MIC: 83.3%
  No. of isolates at MIC: 2
[1]; MIC 2 µg/mL
  Cumulative % at MIC: 100.0%
  No. of isolates at MIC: 2
[1]; MIC […]
  Cumulative % at MIC: 58.3%
  No. of isolates at MIC: 2
[1]; Neisseria gonorrhoeae, isolate IHMA 1123853, read-out: MIC
  MIC: 1 µg/mL (≈ 2.34 µM)
[1]; Neisseria gonorrhoeae, isolate IHMA 1130935, read-out: MIC
  MIC: 0.03 µg/mL (≈ 0.0702 µM)
[1]; Neisseria gonorrhoeae, isolate IHMA 1130989, read-out: MIC
  MIC: 0.015 µg/mL (≈ 0.0351 µM)
[1]; Neisseria gonorrhoeae, isolate IHMA 1130991, read-out: MIC
  MIC: 1 µg/mL (≈ 2.34 µM)
[1]; Neisseria gonorrhoeae, isolate IHMA 1137292, read-out: MIC
  MIC: 0.5 µg/mL (≈ 1.17 µM)
[1]; Neisseria gonorrhoeae, isolate IHMA 1145734, read-out: MIC
  MIC: 0.25 µg/mL (≈ 0.585 µM)
[1]; Neisseria gonorrhoeae, isolate IHMA 1145735, read-out: MIC
  MIC: 0.06 µg/mL (≈ 0.14 µM)
[1]; Neisseria gonorrhoeae, isolate IHMA 1165897, read-out: MIC
  MIC: 0.06 µg/mL (≈ 0.14 µM)
[1]; Neisseria gonorrhoeae, isolate IHMA 1194748, read-out: MIC
  MIC: 0.06 µg/mL (≈ 0.14 µM)
[1]; Neisseria gonorrhoeae, isolate IHMA 1194750, read-out: MIC
  MIC: 0.25 µg/mL (≈ 0.585 µM)
[1]; Neisseria gonorrhoeae, isolate IHMA 1546199, read-out: MIC
  MIC: 2 µg/mL (≈ 4.68 µM)
[1]; Neisseria gonorrhoeae, isolate IHMA 1546215, read-out: MIC
  MIC: 2 µg/mL (≈ 4.68 µM)
[2]; Neisseria gonorrhoeae, ATCC49226, read-out: MIC
  MIC: 0.06 µg/mL (≈ 0.14 µM)
E. coli ATCC 25922 [3]
  MIC, CLSI Range: 0,25 - 1 µg/mL
S. pneumoniae ATCC 49619 [4]
  MIC, CLSI Range: 0,03 - 0,12 µg/mL
H. influenzae ATCC 49247 [5]
  MIC, CLSI Range: 0,25 - 1 µg/mL
[6]
  MIC, CLSI Range: 0,03 - 0,12 µg/mL

## penicillin
[1]; MIC 0.5 µg/mL
  Cumulative % at MIC: 33.3%
  No. of isolates at MIC: 2
[1]; MIC 1 µg/mL
  Cumulative % at MIC: 50.0%
  No. of isolates at MIC: 2
[1]; MIC 2 µg/mL
  Cumulative % at MIC: 75.0%
  No. of isolates at MIC: 3
[1]; MIC >16 µg/mL
  Cumulative % at MIC: 100.0%
  No. of isolates at MIC: 2
[1]; MIC […]
  Cumulative % at MIC: 16.7%
  No. of isolates at MIC: 2
[1]; MIC […] µg/mL
  Cumulative % at MIC: 83.3%
  No. of isolates at MIC: 1
[1]; isolate IHMA 1123853
  MIC: 4 µg/mL
[1]; isolate IHMA 1130935
  MIC: 0.25 µg/mL
[1]; isolate IHMA 1130989
  MIC: 0.25 µg/mL
[1]; isolate IHMA 1130991
  MIC: 2 µg/mL
[1]; isolate IHMA 1137292
  MIC: 1 µg/mL
[1]; isolate IHMA 1145734
  MIC: 2 µg/mL
[1]; isolate IHMA 1145735
  MIC: >16 µg/mL
[1]; isolate IHMA 1165897
  MIC: >16 µg/mL
[1]; isolate IHMA 1194748
  MIC: 0.5 µg/mL
[1]; isolate IHMA 1194750
  MIC: 0.5 µg/mL
[1]; isolate IHMA 1546199
  MIC: 2 µg/mL
[1]; isolate IHMA 1546215
  MIC: 1 µg/mL
[7]; H. influenzae IHMA N° 1227715
  MIC: 32 µg/mL
[7]; H. influenzae IHMA N° 1241620
  MIC: 16 µg/mL
[7]; H. influenzae IHMA N° 1244149
  MIC: 32 µg/mL
[7]; H. influenzae IHMA N° 1249803
  MIC: 4 µg/mL
[7]; H. influenzae IHMA N° 1254355
  MIC: 4 µg/mL
[7]; H. influenzae IHMA N° 1258580
  MIC: 16 µg/mL
[7]; H. influenzae IHMA N° 1262734
  MIC: 16 µg/mL
[7]; H. influenzae IHMA N° 1272723
  MIC: 16 µg/mL
[7]; H. influenzae IHMA N° 1286846
  MIC: 16 µg/mL
[7]; H. influenzae IHMA N° 1337530
  MIC: 32 µg/mL
[7]; H. influenzae IHMA N° 1440085
  MIC: 16 µg/mL
[7]; H. influenzae IHMA N° 1479509
  MIC: 16 µg/mL
[7]; H. influenzae IHMA N° 1952952
  MIC: 8 µg/mL
[7]; H. influenzae IHMA N° 2047461
  MIC: >32 µg/mL
[7]; MIC […] µg/mL
  Cumulative % at MIC: 71.4%
  No. of isolates at MIC: 7
[7]; MIC 32 µg/mL
  Cumulative % at MIC: 92.9%
  No. of isolates at MIC: 3
[7]; MIC >32 µg/mL
  Cumulative % at MIC: 100.0%
  No. of isolates at MIC: 1
E. faecium (n = 13); E. faecium IHMA N° 1764866
  MIC: >32 µg/mL
E. faecium (n = 13); E. faecium IHMA N° 1765436
  MIC: >32 µg/mL
E. faecium (n = 13); E. faecium IHMA N° 1765746
  MIC: >32 µg/mL
E. faecium (n = 13); E. faecium IHMA N° 1893573
  MIC: >32 µg/mL
E. faecium (n = 13); E. faecium IHMA N° 1893846
  MIC: >32 µg/mL
E. faecium (n = 13); E. faecium IHMA N° 1893942
  MIC: >32 µg/mL
E. faecium (n = 13); E. faecium IHMA N° 1894055
  MIC: >32 µg/mL
E. faecium (n = 13); E. faecium IHMA N° 1897027
  MIC: >32 µg/mL
E. faecium (n = 13); E. faecium IHMA N° 1897101
  MIC: >32 µg/mL
E. faecium (n = 13); E. faecium IHMA N° 1904592
  MIC: >32 µg/mL
E. faecium (n = 13); E. faecium IHMA N° 2075051
  MIC: >32 µg/mL
E. faecium (n = 13); E. faecium IHMA N° 2077718
  MIC: >32 µg/mL
E. faecium (n = 13); E. faecium IHMA N° 2083787
  MIC: >32 µg/mL
E. faecium (n = 13); MIC >32 µg/mL
  Cumulative % at MIC: 100.0%
  No. of isolates at MIC: 13
S. pneumoniae (n = 12); MIC 0.5 µg/mL
  Cumulative % at MIC: 25.0%
  No. of isolates at MIC: 2
S. pneumoniae (n = 12); MIC 1 µg/mL
  Cumulative % at MIC: 41.7%
  No. of isolates at MIC: 2
S. pneumoniae (n = 12); MIC 2 µg/mL
  Cumulative % at MIC: 83.3%
  No. of isolates at MIC: 5
S. pneumoniae (n = 12); MIC […] µg/mL
  Cumulative % at MIC: 100.0%
  No. of isolates at MIC: 2
S. pneumoniae (n = 12); MIC ≤0.03 µg/mL
  Cumulative % at MIC: 8.3%
  No. of isolates at MIC: 1
S. pneumoniae (n = 12); S. pneumoniae IHMA N° 1775387
  MIC: 2 µg/mL
S. pneumoniae (n = 12); S. pneumoniae IHMA N° 1776057
  MIC: 1 µg/mL
S. pneumoniae (n = 12); S. pneumoniae IHMA N° 1785617
  MIC: 4 µg/mL
S. pneumoniae (n = 12); S. pneumoniae IHMA N° 1800765
  MIC: 0.5 µg/mL
S. pneumoniae (n = 12); S. pneumoniae IHMA N° 1811259
  MIC: 1 µg/mL
S. pneumoniae (n = 12); S. pneumoniae IHMA N° 1831562
  MIC: ≤0,03 µg/mL
S. pneumoniae (n = 12); S. pneumoniae IHMA N° 1902609
  MIC: 2 µg/mL
S. pneumoniae (n = 12); S. pneumoniae IHMA N° 1979675
  MIC: 2 µg/mL
S. pneumoniae (n = 12); S. pneumoniae IHMA N° 1991963
  MIC: 2 µg/mL
S. pneumoniae (n = 12); S. pneumoniae IHMA N° 2057487
  MIC: 2 µg/mL
S. pneumoniae (n = 12); S. pneumoniae IHMA N° 2073087
  MIC: 4 µg/mL
S. pneumoniae (n = 12); S. pneumoniae IHMA N° 2117109
  MIC: 0.5 µg/mL
P. aeruginosa ATCC 27853; QC strain P. aeruginosa ATCC 27853, test date 2021-11-11
  MIC: >32 µg/mL and 32 µg/mL
P. aeruginosa ATCC 27853; QC strain P. aeruginosa ATCC 27853, test date 2021-11-26
  MIC: >32 µg/mL
E. coli ATCC 25922 [8]; QC strain E. coli ATCC 25922, test date 2021-11-11
  MIC: 32 µg/mL and 16 µg/mL
E. coli ATCC 25922 [8]; QC strain E. coli ATCC 25922, test date 2021-11-26
  MIC: 32 µg/mL
E. faecalis ATCC 29212 [9]; QC strain E. faecalis ATCC 29212, test date 2021-11-11
  MIC: 2 µg/mL
E. faecalis ATCC 29212 [9]; QC strain E. faecalis ATCC 29212, test date 2021-11-26
  MIC: 2 µg/mL
H. influenzae ATCC 49247 [10]; QC strain H. influenzae ATCC 49247, test date 2021-11-11
  MIC: 4 µg/mL and 8 µg/mL
H. influenzae ATCC 49247 [10]; QC strain H. influenzae ATCC 49247, test date 2021-11-26
  MIC: 4 µg/mL
H. influenzae ATCC 49766; QC strain H. influenzae ATCC 49766, test date 2021-11-11
  MIC: 0.25 µg/mL
H. influenzae ATCC 49766; QC strain H. influenzae ATCC 49766, test date 2021-11-26
  MIC: 0.25 µg/mL
[2]
  MIC: 0.25 µg/mL
S. pneumoniae ATCC 49619 [11]; QC strain S. pneumoniae ATCC 49619, test date 2021-11-11
  MIC: 0.25 µg/mL
S. pneumoniae ATCC 49619 [11]; QC strain S. pneumoniae ATCC 49619, test date 2021-11-26
  MIC: 0.25 µg/mL
E. faecalis ATCC 29212 [12]
  MIC, CLSI Range: 1 to 4 µg/mL
S. pneumoniae ATCC 49619 [4]
  MIC, CLSI Range: 0,25 - 1 µg/mL
[6]
  MIC, CLSI Range: 0,25 - 1 µg/mL
